Measurements: US11285156B2, “Substituted piperazines as KRAS G12C inhibitors” (Amgen Inc., priority 2018, dated 2022)

molecular target: GDP-bound KRAS protein (aa 1-169), containing both G12C and C118A amino acid substitutions (Homo sapiens (Human), UniProt P01116, C118A/G12C); assay: Coupled nucleotide exchange assay (SOS-mediated nucleotide exchange, AlphaScreen); type: biochemical; conditions: read-out: Coupled exchange IC50 (5 min; μM); 5 min compound pre-incubation
Sequence (P01116 other isoform, or with tags, fused parts or gaps G12C/C118A): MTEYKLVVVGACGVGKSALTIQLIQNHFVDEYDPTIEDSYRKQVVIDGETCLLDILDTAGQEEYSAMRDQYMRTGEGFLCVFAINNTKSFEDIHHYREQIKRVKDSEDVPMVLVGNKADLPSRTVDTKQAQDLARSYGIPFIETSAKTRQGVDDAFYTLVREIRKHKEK

Going from `C=CC(=O)N1C[C@H](C)N(c2nc(=O)n(-c3c(C)ccnc3C(C)C)c3nc(-c4cc(OC)ccc4Cl)c(F)cc23)C[C@H]1C` (atropisomer, axis not shown; (M)) [Example 94-6, (M)-7-(2-chloro-5-methoxy-phenyl)-4-[(2S,5R)-2,5-dimethyl-4-prop-2-enoyl-piperazin-1-yl]-6-fluoro-1-(2-isopropyl-4-methyl-3-pyridyl)pyrido [2,3-d]pyrimidin-2-one] to `C=CC(=O)N1C[C@H](C)N(c2nc(=O)n(-c3c(C)ccnc3C(C)C)c3nc(-c4cc(OC)cc5ccccc45)c(F)cc23)C[C@H]1C` (atropisomer, axis not shown; (M)) [Example 94-21, (M)-4-[(2S,5R)-2,5-Dimethyl-4-prop-2-enoyl-piperazin-1-yl]-6-fluoro-1-(2-isopropyl-4-methyl-3-pyridyl)-7-(3-methoxy-1-naphthyl)pyrido[2,3-d]pyrimidin-2-one], the IC50 rises from 0.468 µM to 32.4 µM (69-fold). The first is the more potent here.

Going from `C=CC(=O)N1C[C@H](C)N(c2nc(=O)n(-c3c(C)ccnc3C(C)C)c3nc(-c4c(C)cccc4C)c(F)cc23)C[C@H]1C` (atropisomer, axis not shown; (M)) [Example 94-9, (M)-7-(2,6-Dimethylphenyl)-4-[(2S,5R)-2,5-dimethyl-4-prop-2-enoyl-piperazin-1-yl]-6-fluoro-1-(2-isopropyl-4-methyl-3-pyridyl)pyrido [2,3-d]pyrimidin-2-one] to `C=CC(=O)N1C[C@H](C)N(c2nc(=O)n(-c3c(C)ccnc3C(C)C)c3nc(-c4c(F)cccc4F)c(F)cc23)C[C@H]1C` (atropisomer, axis not shown; (M)) [Example 94-11, (M)-7-(2,6-Difluorophenyl)-4-[(2S,5R)-2,5-dimethyl-4-prop-2-enoyl-piperazin-1-yl]-6-fluoro-1-(2-isopropyl-4-methyl-3-pyridyl)pyrido [2,3-d]pyrimidin-2-one], the IC50 rises from 0.469 µM to 0.844 µM (1.8-fold). The first is the more potent here.

`C=CC(=O)N1C[C@H](C)N(c2nc(=O)n(-c3c(C)ccnc3C(C)C)c3nc(-c4ccccc4C(F)F)c(F)cc23)C[C@H]1C` (atropisomer, axis not shown; (M)) [Example 94-13, (M)-7-[2-(Difluoromethyl)phenyl]-4-[(2S,5R)-2,5-dimethyl-4-prop-2-enoyl-piperazin-1-yl]-6-fluoro-1-(2-isopropyl-4-methyl-3-pyridyl)pyrido [2,3-d]pyrimidin-2-one] and `C=CC(=O)N1C[C@H](C)N(c2nc(=O)n(-c3c(C)ccnc3C(C)C)c3nc(-c4ccccc4N)c(F)cc23)C[C@H]1C` (atropisomer, axis not shown; (M)) [Example 94-20, (M)-7-(2-Aminophenyl)-4-[(2S,5R)-2,5-dimethyl-4-prop-2-enoyl-piperazin-1-yl]-6-fluoro-1-(2-isopropyl-4-methyl-3-pyridyl)pyrido [2,3-d]pyrimidin-2-one] are within 1.5-fold of each other in IC50: 0.387 µM for the first, 0.452 µM for the second.

Going from `C=CC(=O)N1C[C@H](C)N(c2nc(=O)n(-c3c(C)ccnc3C(C)C)c3nc(-c4ccccc4C(=O)O)c(F)cc23)C[C@H]1C` (atropisomer, axis not shown; (M)) [Example 94-15, (M)-2-[4-[(2S,5R)-2,5-Dimethyl-4-prop-2-enoyl-piperazin-1-yl]-6-fluoro-1-(2-isopropyl-4-methyl-3-pyridyl)-2-oxo-pyrido[2,3-a]pyrimidin-7-yl]benzoic acid] to `C=CC(=O)N1C[C@H](C)N(c2nc(=O)n(-c3c(C)ccnc3C(C)C)c3nc(-c4ccccc4C(N)=O)c(F)cc23)C[C@H]1C` (atropisomer, axis not shown; (M)) [Example 94-17, (M)-2-[4-[(2S,5R)-2,5-Dimethyl-4-prop-2-enoyl-piperazin-1-yl]-6-fluoro-1-(2-isopropyl-4-methyl-3-pyridyl)-2-oxo-pyrido[2,3-d]pyrimidin-7-yl]benzamide], the IC50 falls from 0.963 µM to 0.39 µM (2.5-fold).

`C=CC(=O)N1C[C@H](C)N(c2nc(=O)n(-c3c(C)ccnc3C(C)C)c3nc(-c4ccccc4C(=O)NC)c(F)cc23)C[C@H]1C` (atropisomer, axis not shown; (M)) [Example 94-18] gave an IC50 of 0.749 µM.
